The values below come from paper PMC10725991, “Kaempferol is a novel antiviral agent against channel catfish virus infection through blocking viral attachment and penetration in vitro” (Frontiers in Veterinary Science, 2023).

In one data set the test system is CCO cells. Kind of data set: Compounds cytotoxicity assay (CCK-8 cell viability). In kind it is cell-based. The conditions noted are these: channel catfish, 72 h. As to the method: The cytotoxicity effects of the selected compounds were detected in CCO cells by the cell viability assay. In brief, the CCO cells were seeded in 96-well plates and cultured to reach approximately 90% confluence in each well at 28°C. Subsequently, the monolayer cells were exposed to a maintenance medium with the tested compounds at different concentrations or DMSO for 72 h. Cell Counting Kit-8 (Beyotime, China) was used to measure the cell viability according to the manufacturer’s protocol after 72 h incubation. The optical density at 450 nm was measured using a Spark microplate reader (TECAN, Switzerland). Then, the maximum safe concentration (≥ 90% cell survived, SC90) of compounds to CCO cells was calculated according to the cell viability.
All data were analyzed with GraphPad Prism 8.0. Viral titers were log10 transformed prior to statistical analyses. The SC90 values were calculated using probit analysis. The data are expressed as the arithmetic mean ± standard deviation (SD) and were analyzed by one-way ANOVA with multiple comparisons test. Statistical significance was defined as *p < 0.05, **p < 0.01.
Figure 1 Cytotoxicity assay. The CCO cells were treated with 12 tested compounds with different concentrations in a 96-well plate for 72 h, and then the cell viability was measured by CCK-8. (A) Kaempferol, (B) Tannic acid, (C) P-Coumaric acid, (D) Magnolol, (E) Baicalein, (F) Genistein, (G) Mangiferin, (H) Rosmarinic acid, (I) Artemisinin, (J) Myricetin, (K) Ginkgolic acid, (L) Shikonin. Data represent mean ± SD normalized to values for DMSO treated group. The SC90 was analyzed and calculated using probit analysis. TEXT PRINTED IN THE PICTURE: (A) Kaempferol: SC90 = 47.53 μg/ml | (B) Tannic acid: SC90 = 90.02 μg/ml | (C) P-Coumaric acid: SC90 ≥500 μg/ml | (D) Magnolol: SC90 = 10.02 μg/ml | (E) Baicalein: SC90 = 29.73 μg/ml | (F) Genistein: SC90 = 13.66 μg/ml | (G) Mangiferin: SC90 ≥500 μg/ml | (H) Rosmarinic acid: SC90 = 46.37 μg/ml | (I) Artemisinin: SC90 ≥500 μg/ml | (J) Myricetin: SC90 = 346.19 μg/ml | (K) Ginkgolic acid: SC90 = 10.89 μg/ml | (L) Shikonin: SC90 = 54.44 μg/ml DOUBTS OF THE COPYIST ABOUT THIS PICTURE: All SC90 values are in small print, so 3, 5, 6, 8 and 9 are hard to tell apart / Kaempferol, SC90: 47.53 (5 or 3 uncertain) / Tannic acid, SC90: 90.02 (9 or 8 uncertain) / Baicalein, SC90: 29.73 (9 or 3 uncertain) / Genistein, SC90: 13.66 (3 and 6 uncertain) / Rosmarinic acid, SC90: 46.37 (6 and 3 uncertain) / Myricetin, SC90: 346.19 (3, 6 and 9 uncertain) / Ginkgolic acid, SC90: 10.89 (8 and 9 uncertain) / Shikonin, SC90: 54.44 (5 uncertain) / P-Coumaric acid, Mangiferin, Artemisinin, SC90: sign ≥ or >; 500 (5 uncertain)

The test system of a further data set is CCV in CCO cells. Kind of data set: Time-of-drug-addition assay, RT-qPCR. In kind it is cell-based, Channel catfish virus (CCV, Ictalurid herpesvirus 1). As to the method: The CCO cells seeded in 24-well plates were infected with CCV under five different treatment conditions: (i) Control: CCO cells cultured in the maintenance DMEM media were infected by CCV for 1 h. (ii) Pre-treatment: CCO cells were pre-treated with 15 μg/mL of kaempferol for 2 h before CCV infection. (iii) Virus treatment: CCV was pre-incubated with kaempferol at 37°C for 2 h before being added to CCO cells. (iv) Virus and kaempferol co-treatment: CCO cells were treated in media containing both kaempferol and CCV at 28°C for 1 h. (v) Post-treatment: CCO cells were incubated with CCV at 28°C for 1 h. After that, kaempferol (15 μg/mL) was supplemented at 1, 2, 4, 8, 12, and 24 h post-infection. In all treatment conditions, the unabsorbed CCV was washed off twice by PBS after 1 h of adsortion. The samples were collected to test the CCV gene expression by the RT-qPCR at 24 h and 36 h after the corresponding treatments.
For RT-qPCR, the total RNA was isolated from CCV-infected cells using RnaExTM (Trizol)^a reagent (GENERAY, China), and reversed transcribed applying a HiScript III RT SuperMix with gDNA wiper (Vazyme, China) following the manufacturer’s instructions. Quantitative PCR was performed with a LightCycler 96 Real-Time PCR Detection System (Roche, USA) using ChamQ Universal SYBR qPCR Master Mix (Vazyme, China) with the following cycle conditions: 95°C for 30 s, followed by 40 cycles of 95°C for 10 s and 60°C for 30 s. To assess the specificity of each amplicon, melt curve analysis was also performed at the end of each thermal profile. The primers used for PCR are listed in Supplementary Table S2. Each individual sample was run in triplicate wells. Fold changes of the selected gene vs 18 s (internal reference) were calculated by the 2^−△△Ct method.
Figure 5 Time of drug-addition assay of kaempferol in CCV inhibition. (A) The schematic diagram of the experimental settings. The CCO cells were infected with CCV for 1 h followed by the indicated kaempferol treatments. Cell lysates at indicated time post-infection were subjected to RT-qPCR. (B,C) The relative expression levels of the CCV ORF 39 and ORF 59 genes with cell-treatment, virus-treatment and co-treatment at 24 h and 36 h post-infection. (D) The relative expression levels of the CCV ORF 39 and ORF 59 genes with post-treatment at 36 h post-infection. The selected gene level was normalized to 18 s (internal reference) using the 2^− ΔΔCT method. Data represent mean ± SD. The p value was determined by *p < 0.05, **p < 0.01.

On to `O=c1c(O)c(-c2ccc(O)cc2)oc2cc(O)cc(O)c12` [Kaempferol], for which the “SC90 (maximum safe concentration, ≥ 90% cell survived)” value in the data set with CCO cells came out at 47.53 µg/mL. Moreover, in the data set on CCV in CCO cells (15 μg/mL for 2 h before CCV infection, 24 h post CCV infection), the “intracellular CCV mRNA level, pre-treatment of cells” value was “effectively decreased”. For the same compound, the “intracellular CCV mRNA level, post-treatment” value in the data set with CCV in CCO cells (15 μg/mL kaempferol supplemented 1-24 h post-infection, read at 36 h) was “significantly reduced”. Also, the “viral ORF 39 and ORF 59 mRNA levels, co-treatment” value in the data set with CCV in CCO cells (15 μg/mL kaempferol with CCV at 28°C for 1 h) is “failed to decrease”. Also, in the data set on CCV in CCO cells (15 μg/mL, post-treatment, read at 36 h post-infection), the “decrease of viral mRNA level, kaempferol supplemented at 24 h post-infection” value is “approximately 40%”. Moreover, the “intracellular CCV mRNA level, virus-treatment” value in the data set on CCV in CCO cells (CCV pre-incubated with kaempferol 2 h before addition to cells) is listed as “significantly reduced”.
